Experimental findings from US20250206704A1, “ENGINEERED IONOPHORES FOR TRANSPORT OF METAL IONS” (The Brigham and Women's Hospital, Inc., priority 2022, published 2025) are described below.

In brackets after ≈: the same amount, converted by molar mass. Where two headings read alike, the source gives them in different places.

Assay type in all cases: cell-based
Assay [1] deals with U2OS cells. Put plainly: ICP-MS analysis of intracellular Zn(II) in U2OS cells. To be noted: 10 μM Zn(II) and 5 μM compound, 1 hour. On the procedure:
Next, Applicants used inductively coupled plasma mass spectrometry (ICP-MS) to validate the imaging assay and the ionophores activity (FIG. 1F). While the intracellular Zn^II levels where similar between DMSO and chelator 1, Zn^II concentrations inside cells were 3-fold higher when Applicants co-treated ionophores 8 and 9.
U2OS cells (˜200,000) were plated in a 6-well dish. After a day, the medium was aspirated, and Zn(II) (10 μM) and compounds (5 μM) containing media (2 mL) were added to each appropriate well. Cells were harvested by first washing each well with PBS containing EDTA (100 μM, 2×2.0 mL) and subsequently adding Milli-Q water ([…] to each well and incubating for 2-4 min. A portion of the resulting cell lysate (900 μL) was collected and transferred to an Eppendorf Safe-Lock tube, snap-frozen in N2(l), and then thawed at room temperature (RT) for a total of three freeze-thaw cycles. The insoluble lysate was pelleted (10 min at 10,000 g), and the soluble protein concentration of each sample was determined using the Pierce 660 nm Protein Assay in a 96-well plate (200 μL of reagent, 14 μL of sample, bovine serum albumin standard curve). Samples were then frozen and lyophilized overnight, and the resulting white, flaky solid was taken up in concentrated nitric acid (200 μL, ultrapure for trace metal analysis, BDH Aristar) and heated at 70° C. for 1 h. A portion of each sample (142 μL) was then diluted with water (2 mL) and a terbium internal standard (Agilent 5190-8590; stock at 10,000 parts per billion [ppb] in 10% nitric acid diluted to 100 ppb in Milli-Q water for addition to samples, 2 ppb final concentration), after which the metal content of the samples was assessed by ICP-MS. […] Therefore, 1 ppb was taken to be equal to 1 μg/L, and the molarity of a particular solution was considered equal to the measured concentration of a particular ion in ppb, divided by the molecular weight of the ion, multiplied by 10-6.

The subject of assay [2] is U2OS cells. Briefly: Zinc imaging assay (DA-ZP1 fluorescence) of ionophore activity in U2OS cells. To be noted: for ionophore activity (DA-ZP1 fluorescence): U2OS cells, 10 μM Zn(II) and 5 μM compound. The text has this: A number of bispicolyl-based Zn^II-chelators were synthesized with increasing size at the ortho-position of phenolic OH by a one-step reductive amination between bispicolyl-amine and commercially available 3-substituted salicylaldehydes. Applicants examined the ionophore activity of bispicolyl analogs with methyl (Me, 2), isopropyl (iPr, 3), and tert-butyl (tBu, 4) substitutions (FIG. 1A). […] [13] The cells were first treated with ZnCl2 and ionophore candidates followed by DA-ZP1 treatment and fluorescence measurement.
Applicants experimentally determined the ionophore activity of these silyl-based compounds using the aforementioned DAZ-P1 assay in U2OS cells.
Applicants also determined metal-ion interference of the silyl-based ionophores with focused efforts on 8. Applicants designed a competition assay wherein Applicants pre-treated equimolar amounts of various metal ions, Mg^II, Ca^II, Mn^II, Fe^II, and Na^I, with 10 μM of Zn^II for 1 hour before treatment with DA-ZP1.
Finally, Applicants compared the activity of the designed compounds against known ionophores (FIGS. 2 and 11). […] [16]
In a 96-well plate, 20,000 U2OS cells were plated per well and cultured for 24 h in the incubator set to 37° C. with 5% CO2. […] The medium containing the compound was removed, and the cells were washed with 3×100 μL of fresh medium, and finally another 100 μL of 2 μM of DA-ZP1 was added to the corresponding cell culture medium containing HCS NuclearMask Blue Stain. The cells were again kept for 1 h in the incubator. The medium containing compound was removed, and the cells were washed with 1×100 μL of PBS and 2×100 μL of fresh medium, and finally, another 100 μL of fresh, dye-free medium was added. The cells were immediately imaged using a high-content fluorescence microscope (Operetta Phenix) in both the DAPI and FITC channels at 20× magnification. Images were analyzed using the Harmony software, and data were plotted using GraphPad Prism 9.

The next assay deals with bacteria vs U2OS cells. Put plainly: Antibacterial selectivity (average molar MIC in bacteria vs EC50 in U2OS cells).
A further assay has as its system Bacillus subtilis. Put plainly: MIC, broth microdilution. The note with it: Table 4, read-out: Strain MIC B. subtilis. On the procedure:
(§1) Next, Applicants evaluated the antibacterial activities of the ionophores. First, Applicants determined their minimum inhibitory concentration (MIC) in the gram-positive bacterium that causes hospital-acquired infections, Staphylococcus epidermidis.
(§2) Staphylococcus epidermidis ATCC® 12228™, Staphylococcus caprae ATCC® 51549™, Bacillus subtilis ATCC® 6051™, and Bacillus cereus ATCC® 14579™ were grown in cation-adjusted Mueller-Hinton broth (CA-MHB) (catalog no. 90922, Sigma) as per the Clinical and Laboratory Standards Institute guidelines.2 Bacteria were routinely grown at 37° C. under aerobic conditions.
(§3) The MIC assay was performed according to the Clinical and Laboratory Standards Institute protocols.^3 The antibacterial activities of the compounds were measured using the broth microdilution method. Serial dilutions of compounds were prepared in cation-adjusted Müller Hinton Broth. Each dilution (100 μL) was dispensed to each well of a round-bottom plate to obtain final concentrations ranging from 0.07815-40 μM. Bacteria were grown at 37° C. overnight on cation-adjusted Müller Hinton Broth. The bacterial solution was prepared in 0.9% saline and adjusted to obtain an OD600=0.1 using a SpectraMax M5 (Molecular Devices). The resultant suspension was diluted 1:20 with cation-adjusted Müller Hinton Broth. The resulting mixture (10 μL) was added to each well of the plates (approximately 5×10^4 CFU/well), mixed, and incubated at 37° C. for 24 h. The MIC value was determined as the minimum concentration that inhibited the growth of bacteria.
(In general: In broth dilution the organism is exposed to a series of concentrations in liquid medium.)

In a further assay the test system is Bacillus cereus. Briefly: MIC, broth microdilution. To be noted: Table 4, read-out: Strain MIC B. cereus. On the procedure: as §1, §2, §3
In a further assay the test system is Staphylococcus caprae. Put plainly: MIC, broth microdilution. To be noted: Table 4, read-out: Strain MIC S. caprae. On the procedure: as §1, §2, §3
[3] abbreviates: ratio of average molar MIC and U2OS EC50, Table 4.

By MIC is commonly meant the lowest concentration that inhibits growth of the organism.

Turning to `CC(C)[Si](c1cccc(CN(Cc2ccccn2)Cc2ccccn2)c1O)(C(C)C)C(C)C` [Compound 9, 2-((bis(pyridin-2-ylmethyl)amino)methyl)-6-(triisopropylsilyl)phenol], the “intracellular Zn^II level relative to DMSO” value in the assay with U2OS cells [1] stood at 3 fold. Besides, in the assay on U2OS cells [2], the “ionophore activity (DA-ZP1 fluorescence)” value was “improved ionophore activity”. Further, the antibacterial selectivity with bacteria vs U2OS cells amounted to 6.8 times; with bacteria vs U2OS cells (setting [3]), 6.8. The MIC in the assay with Bacillus subtilis was found to be 1.2 mg/L (≈ 2.6 µM); with Bacillus cereus it was 1.2 mg/L (≈ 2.6 µM); in the assay with Staphylococcus caprae, 0.3 mg/L (≈ 0.65 µM).
For `CC(C)(C)[Si](C)(C)c1cccc(CN(Cc2ccccn2)Cc2ccccn2)c1O` [Compound 8, 2-((bis(pyridin-2-ylmethyl)amino)methyl)-6-(tert-butyldimethylsilyl)phenol], in the assay on U2OS cells [1], the “intracellular Zn^II level relative to DMSO” value is given as 3 fold. Besides, the “ionophore activity (DA-ZP1 fluorescence)” value with U2OS cells [2] is given as “improved ionophore activity”. The “metal-ion interference with ionophore activity (average fluorescence intensity)” value in the assay with U2OS cells [2] (competition: 10 μM Mg^II, Ca^II, Mn^II, Fe^II or Na^I with 10 μM Zn^II and 10 μM compound) was “did not observe significant drops in average fluorescence intensity for most metal ions”. In addition, the figures for the antibacterial selectivity in the assay on bacteria vs U2OS cells and in the assay with bacteria vs U2OS cells (setting [3]) were 9.4 times and 9.4, respectively. Further, the MIC was 4.2 mg/L (≈ 10 µM) in the assay with Bacillus subtilis, 4.2 mg/L (≈ 10 µM) in the assay on Bacillus cereus and 1.1 mg/L (≈ 2.62 µM) with Staphylococcus caprae.
